Reference: ChEMBL document CHEMBL1201862, “PubChem BioAssay data set” (2004)
The source made the active and inactive calls.

What was measured:
[1] = biological target: T1, Runt-related transcription factor 1/Core-binding factor subunit beta (Homo sapiens, UniProt Q01196+Q13951); assay: Confirmation of compounds inhibiting the binding between the RUNX1 Runt domain and CBFb-SMMHC via a fluorescence resonance energy transfer (FRET) assay. [Related pubchem assays (depositor defined):AID1434, AID1438, AID1496, AID1550, AID1645]; assay type: protein assay
[2] = biological target: T1, Runt-related transcription factor 1/Core-binding factor subunit beta; assay: disruptors of Runt domain/CBFb-SMMHC interaction – biochemical, FRET, Cerulean-Runt, Venus-CBFb-SMMHC, uHTS, […] (AID 1434); assay type: protein assay
[3] = biological target: T1, Runt-related transcription factor 1/Core-binding factor subunit beta; assay: Runt domain/CBFb-SMMHC interaction disruptors – biochemical, TR-FRET (AID 1438); assay type: protein assay
[4] = microbe, parasite or virus in culture; assay type: functional; settings: Mycobacterium tuberculosis
[5] = Vero E6 cell cytotoxicity, dose response, cytotoxicity control for non-replicating M. tuberculosis project, secondary assay (AID 492998); assay type: functional, VeroE6; settings: Vero C1008
cells = assay type: functional
[6] = biological target: T2, G-protein coupled receptor 35 (Homo sapiens, UniProt Q9HC97); assay: SAR analysis of Agonists of the GPR35 Receptor using an Image-Based Assay - Set 4. [Related pubchem assays (depositor defined):AID2013, AID2026]; assay type: functional
Cannabinoid receptor 1 [7] = biological target: T3, Cannabinoid receptor 1 (Homo sapiens, UniProt P21554); assay: SAR analysis of agonists of the Cannabinoid Receptor 1 using an Image-Based Assay - Set 4. [Related pubchem assays (depositor defined):AID2013, AID2026]; assay type: functional
[8] = biological target: T2, G-protein coupled receptor 35; assay: SAR analysis of Antagonists of the GPR35 Receptor using an Image-Based Assay - Set 6. [Related pubchem assays (depositor defined):AID2013, AID2026]; assay type: functional
Cannabinoid receptor 1 [9] = biological target: T3, Cannabinoid receptor 1; assay: SAR analysis of antagonists of the Cannabinoid Receptor 1 using an Image-Based Assay - Set 4. [Related pubchem assays (depositor defined):AID2013, AID2026]; assay type: functional
[10] = biological target: G-protein coupled receptor 55 (Homo sapiens, UniProt Q9Y2T6); assay: SAR Analysis of Selective Antagonists of GPR55 using an Image-Based Assay - Set 4. [Related pubchem assays (depositor defined):AID2013, AID2026]; assay type: functional;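 also: antagonism of response to 5 µM lysophosphatidylinositol agonist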
Cannabinoid receptor 2 [11] = biological target: T4, Cannabinoid receptor 2 (Homo sapiens, UniProt P34972); assay: SAR analysis of antagonists of the Cannabinoid Receptor 2 using an Image-Based Assay - Set 3. [Related pubchem assays (depositor defined):AID2013, AID2026]; assay type: functional
Cannabinoid receptor 2 [12] = biological target: T4, Cannabinoid receptor 2; assay: SAR analysis of agonists of the Cannabinoid Receptor 2 using an Image-Based Assay - Set 3. [Related pubchem assays (depositor defined):AID2013, AID2026]; assay type: functional
[13] = biological target: Sphingosine 1-phosphate receptor 4 (Homo sapiens, UniProt O95977); assay: Late-stage fluorescence dose response cell-based assay to identify agonists of the Sphingosine 1-Phosphate Receptor 4 (S1P4): purchased compounds EC50. [Related pubchem assays (depositor defined):AID1509, AID1523, AID1563, AID1686, AID1701, AID1801]; assay type: functional
[14] = biological target: T5, Mannose-6-phosphate isomerase (Homo sapiens, UniProt P34949); assay: MPI enzyme activity inhibition – biochemical, fluorescence intensity, coupled assay, primary screen (AID 1209)
T5 sequence (P34949 whole entry): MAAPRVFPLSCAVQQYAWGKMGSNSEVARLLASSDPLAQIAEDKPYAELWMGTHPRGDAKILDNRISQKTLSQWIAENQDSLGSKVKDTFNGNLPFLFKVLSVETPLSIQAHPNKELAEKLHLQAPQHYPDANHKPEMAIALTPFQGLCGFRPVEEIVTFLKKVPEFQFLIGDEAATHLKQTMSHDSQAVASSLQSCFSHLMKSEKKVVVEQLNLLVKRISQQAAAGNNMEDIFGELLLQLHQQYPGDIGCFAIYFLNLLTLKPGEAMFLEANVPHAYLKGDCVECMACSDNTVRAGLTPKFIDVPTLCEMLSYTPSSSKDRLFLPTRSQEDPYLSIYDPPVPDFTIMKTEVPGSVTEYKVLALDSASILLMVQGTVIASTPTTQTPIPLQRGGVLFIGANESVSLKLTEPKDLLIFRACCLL

[15] = biological target: T5, Mannose-6-phosphate isomerase; assay: phosphomannose isomerase inhibition – biochemical, fluorescence intensity, confirmation (AID 1535)
Phosphomannomutase 2 = biological target: T6, Phosphomannomutase 2 (Homo sapiens, UniProt O15305); assay: Counter screen SAR assay for PMM2 inhibitors via a fluorescence intensity assay. [Related pubchem assays (depositor defined):AID1545, AID1574]
T6 sequence (O15305 whole entry): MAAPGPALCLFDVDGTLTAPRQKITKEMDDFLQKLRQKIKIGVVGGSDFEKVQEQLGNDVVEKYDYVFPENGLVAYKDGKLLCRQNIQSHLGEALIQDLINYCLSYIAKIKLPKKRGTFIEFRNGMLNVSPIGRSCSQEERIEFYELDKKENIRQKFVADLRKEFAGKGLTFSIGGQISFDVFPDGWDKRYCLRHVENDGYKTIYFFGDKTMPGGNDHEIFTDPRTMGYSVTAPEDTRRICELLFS

[16] = biological target: T7, Tyrosine-protein phosphatase non-receptor type 7 (Homo sapiens, UniProt P35236); assay: SAR analysis of chemical inhibitors of HePTP using a Fluorescent assay - Set 2. [Related pubchem assays (depositor defined):AID1059, AID1077, AID1661, AID2085, AID521]; assay type: functional
T7 sequence (P35236 whole entry): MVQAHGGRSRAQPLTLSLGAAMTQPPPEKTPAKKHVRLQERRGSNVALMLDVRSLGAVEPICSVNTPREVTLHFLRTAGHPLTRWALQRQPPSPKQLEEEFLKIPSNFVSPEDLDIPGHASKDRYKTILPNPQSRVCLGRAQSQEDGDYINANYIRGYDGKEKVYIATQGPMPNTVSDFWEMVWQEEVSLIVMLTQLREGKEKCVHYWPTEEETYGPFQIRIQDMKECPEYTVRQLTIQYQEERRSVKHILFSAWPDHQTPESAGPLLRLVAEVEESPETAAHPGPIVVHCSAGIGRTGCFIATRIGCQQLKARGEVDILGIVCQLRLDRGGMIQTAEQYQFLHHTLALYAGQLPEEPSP

[17] = biological target: Dual specificity protein phosphatase 3 (Homo sapiens, UniProt P51452); assay: SAR VHR1 Fluorescent Assay for In Vitro dose response studies Set 2. [Related pubchem assays (depositor defined):AID1654, AID1661, AID1878]; assay type: functional
[18] = biological target: T8, RNA-binding protein pos-1 (Caenorhabditis elegans, UniProt G5EF15); assay: disruptors of C. elegans POS-1 RNA interaction – biochemical, fluorescence polarization, dose response (AID 1964);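 also: purified POS-1 fused to maltose binding protein made in E. coli; potency of compounds blocking POS-1 binding to fluorescent RNA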
T8 sequence (G5EF15 whole entry): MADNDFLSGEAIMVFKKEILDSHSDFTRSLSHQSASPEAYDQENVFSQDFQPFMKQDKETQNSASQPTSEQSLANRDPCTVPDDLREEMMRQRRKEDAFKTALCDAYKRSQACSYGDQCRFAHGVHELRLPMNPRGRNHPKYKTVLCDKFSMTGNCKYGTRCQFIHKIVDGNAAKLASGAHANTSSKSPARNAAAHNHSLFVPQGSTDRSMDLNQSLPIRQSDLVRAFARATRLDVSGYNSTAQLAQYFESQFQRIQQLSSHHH

[19] = biological target: T9, Zinc finger protein mex-5 (Caenorhabditis elegans, UniProt Q9XUB2); assay: potency of MEX-5 RNA-binding blockers – biochemical, C. elegans, fluorescence polarization, dose response (AID 1960)
T9 sequence (Q9XUB2 whole entry): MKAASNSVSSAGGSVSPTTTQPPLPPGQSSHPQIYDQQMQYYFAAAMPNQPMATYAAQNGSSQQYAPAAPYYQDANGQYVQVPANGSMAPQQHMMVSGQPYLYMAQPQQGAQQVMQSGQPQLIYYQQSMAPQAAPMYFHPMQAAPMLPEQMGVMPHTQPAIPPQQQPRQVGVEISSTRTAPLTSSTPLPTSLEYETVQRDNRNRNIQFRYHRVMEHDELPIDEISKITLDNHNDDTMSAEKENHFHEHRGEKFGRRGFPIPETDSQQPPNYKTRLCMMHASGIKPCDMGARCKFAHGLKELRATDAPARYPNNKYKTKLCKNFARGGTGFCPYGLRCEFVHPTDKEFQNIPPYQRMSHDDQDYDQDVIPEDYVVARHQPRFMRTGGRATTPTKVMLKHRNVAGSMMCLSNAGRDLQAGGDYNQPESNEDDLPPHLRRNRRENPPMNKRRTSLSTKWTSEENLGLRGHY

Ion channel NompC = Ion channel NompC (Danio rerio, UniProt Q7T1G6); assay: Dose response cell-based high-throughput screening assay for agonists of the transient receptor potential channel N1 (TRPN1). [Related pubchem assays (depositor defined):AID1424, AID1448]; assay type: functional
Beta-lactamase [20] = biological target: Beta-lactamase (Pseudomonas aeruginosa, UniProt Q79MP6);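 also: biochemical dose-response test of metallo-beta-lactamase enzyme inhibition, read out by epi-absorbance; purified recombinant IMP-1 metallo-beta-lactamase with nitrocefin as substrate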
Mucolipin-3 = Mucolipin-3 (Homo sapiens, UniProt Q8TDD5); assay: Fluorescence counterscreen assay for […] agonists: dose response cell-based high-throughput screening assay to identify agonists of the transient receptor potential channel ML3 (TRPML3). [Related pubchem assays: 1424, 1448 ]; assay type: functional
Beta-lactamase [21] = biological target: Beta-lactamase (Salmonella choleraesuis (strain SC-B67), UniProt Q5J463)
[22] = biological target: Peroxisome proliferator-activated receptor gamma (Homo sapiens, UniProt P37231); assay: PPARg transcriptional activation, reporter cells – cell-based, luminescence, assay provider, dose response (AID 504447); assay type: functional
Sequence of Peroxisome proliferator-activated receptor gamma (P37231 whole entry): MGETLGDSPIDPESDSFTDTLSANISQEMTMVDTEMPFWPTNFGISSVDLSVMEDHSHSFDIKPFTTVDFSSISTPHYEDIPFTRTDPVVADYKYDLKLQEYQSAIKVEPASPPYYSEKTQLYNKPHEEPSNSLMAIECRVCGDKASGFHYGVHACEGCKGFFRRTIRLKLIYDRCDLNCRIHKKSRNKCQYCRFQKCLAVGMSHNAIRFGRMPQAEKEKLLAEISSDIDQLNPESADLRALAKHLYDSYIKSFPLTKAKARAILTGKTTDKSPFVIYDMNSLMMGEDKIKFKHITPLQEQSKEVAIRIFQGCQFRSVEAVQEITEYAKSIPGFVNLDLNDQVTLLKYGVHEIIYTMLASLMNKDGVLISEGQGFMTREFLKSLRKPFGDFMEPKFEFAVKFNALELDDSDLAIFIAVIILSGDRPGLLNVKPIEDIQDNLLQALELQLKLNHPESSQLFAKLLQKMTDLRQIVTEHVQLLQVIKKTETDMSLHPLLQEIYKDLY

T1 sequence (Q01196 whole entry, the tested form may be a part): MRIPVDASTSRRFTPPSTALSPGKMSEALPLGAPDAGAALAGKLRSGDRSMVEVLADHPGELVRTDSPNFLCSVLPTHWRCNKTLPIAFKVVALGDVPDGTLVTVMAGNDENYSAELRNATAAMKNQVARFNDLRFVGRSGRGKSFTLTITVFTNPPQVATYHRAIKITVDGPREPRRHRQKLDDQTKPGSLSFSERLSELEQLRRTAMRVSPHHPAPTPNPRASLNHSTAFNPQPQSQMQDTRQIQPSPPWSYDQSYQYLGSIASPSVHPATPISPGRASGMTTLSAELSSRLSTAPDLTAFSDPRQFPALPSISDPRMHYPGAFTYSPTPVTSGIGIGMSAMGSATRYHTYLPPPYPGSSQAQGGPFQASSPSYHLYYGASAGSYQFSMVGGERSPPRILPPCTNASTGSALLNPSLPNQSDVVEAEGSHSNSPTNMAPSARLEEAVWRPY
T1 sequence (Q13951 whole entry, the tested form may be a part): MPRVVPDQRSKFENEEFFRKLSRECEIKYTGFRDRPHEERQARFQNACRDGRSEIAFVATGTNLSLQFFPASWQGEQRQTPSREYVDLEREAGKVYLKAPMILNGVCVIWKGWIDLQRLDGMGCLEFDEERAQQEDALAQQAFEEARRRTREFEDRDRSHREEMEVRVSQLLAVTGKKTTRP
T4 sequence (P34972 whole entry): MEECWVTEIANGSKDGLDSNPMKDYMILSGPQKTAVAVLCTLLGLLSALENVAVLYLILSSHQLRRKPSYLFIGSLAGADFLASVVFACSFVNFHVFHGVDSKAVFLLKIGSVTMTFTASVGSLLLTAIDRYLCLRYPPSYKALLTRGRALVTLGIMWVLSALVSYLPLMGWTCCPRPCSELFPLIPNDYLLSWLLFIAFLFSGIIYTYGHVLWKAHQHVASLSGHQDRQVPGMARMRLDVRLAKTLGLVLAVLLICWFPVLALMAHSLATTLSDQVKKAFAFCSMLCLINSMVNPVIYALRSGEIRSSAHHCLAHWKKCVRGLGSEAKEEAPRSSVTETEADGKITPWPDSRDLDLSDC
T3 sequence (P21554 whole entry): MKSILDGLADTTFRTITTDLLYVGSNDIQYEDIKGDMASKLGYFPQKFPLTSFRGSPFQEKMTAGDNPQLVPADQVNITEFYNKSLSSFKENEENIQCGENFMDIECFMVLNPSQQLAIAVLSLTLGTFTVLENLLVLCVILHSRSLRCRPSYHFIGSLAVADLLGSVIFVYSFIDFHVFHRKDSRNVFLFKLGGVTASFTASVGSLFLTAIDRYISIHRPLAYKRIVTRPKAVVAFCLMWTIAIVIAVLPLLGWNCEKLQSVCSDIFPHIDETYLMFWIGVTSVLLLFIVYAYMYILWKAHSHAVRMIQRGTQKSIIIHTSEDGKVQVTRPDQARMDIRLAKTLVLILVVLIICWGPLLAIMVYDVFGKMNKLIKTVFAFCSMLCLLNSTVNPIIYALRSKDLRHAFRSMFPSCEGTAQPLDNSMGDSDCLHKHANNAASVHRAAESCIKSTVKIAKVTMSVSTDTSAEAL
T2 sequence (Q9HC97 whole entry): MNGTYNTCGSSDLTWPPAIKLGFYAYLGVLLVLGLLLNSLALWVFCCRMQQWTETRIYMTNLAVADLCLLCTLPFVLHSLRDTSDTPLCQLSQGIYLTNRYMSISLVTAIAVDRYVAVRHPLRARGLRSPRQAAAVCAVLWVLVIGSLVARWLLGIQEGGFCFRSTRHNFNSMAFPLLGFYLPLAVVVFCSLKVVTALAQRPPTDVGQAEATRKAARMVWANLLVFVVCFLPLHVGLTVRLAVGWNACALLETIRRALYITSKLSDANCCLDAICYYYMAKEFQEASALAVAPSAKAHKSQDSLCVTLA
Sequence of Dual specificity protein phosphatase 3 (P51452 whole entry, the tested form may be a part): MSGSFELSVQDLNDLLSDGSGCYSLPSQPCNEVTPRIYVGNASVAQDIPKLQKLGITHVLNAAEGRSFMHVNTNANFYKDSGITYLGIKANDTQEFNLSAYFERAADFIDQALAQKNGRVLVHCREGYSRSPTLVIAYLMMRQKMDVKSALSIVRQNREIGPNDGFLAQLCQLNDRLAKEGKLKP
Sequence of Beta-lactamase (Salmonella choleraesuis (strain SC-B67), UniProt Q5J463) (Q5J463 whole entry): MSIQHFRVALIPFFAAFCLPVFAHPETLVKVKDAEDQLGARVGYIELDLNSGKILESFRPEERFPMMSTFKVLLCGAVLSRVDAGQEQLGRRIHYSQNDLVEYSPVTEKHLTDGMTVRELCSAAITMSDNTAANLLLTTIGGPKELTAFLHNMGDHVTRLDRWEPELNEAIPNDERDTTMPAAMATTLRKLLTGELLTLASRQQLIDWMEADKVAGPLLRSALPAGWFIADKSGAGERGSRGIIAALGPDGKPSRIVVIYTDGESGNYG
Sequence of G-protein coupled receptor 55 (Q9Y2T6 whole entry): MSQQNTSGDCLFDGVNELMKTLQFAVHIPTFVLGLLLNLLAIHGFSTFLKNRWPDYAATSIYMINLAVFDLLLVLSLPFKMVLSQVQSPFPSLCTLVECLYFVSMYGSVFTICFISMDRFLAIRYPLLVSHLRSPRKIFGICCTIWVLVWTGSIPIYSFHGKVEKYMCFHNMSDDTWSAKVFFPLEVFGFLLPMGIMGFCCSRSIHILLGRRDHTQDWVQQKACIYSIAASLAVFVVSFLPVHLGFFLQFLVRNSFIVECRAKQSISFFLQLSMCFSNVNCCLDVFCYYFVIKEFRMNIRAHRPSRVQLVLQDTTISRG
Sequence of Beta-lactamase (Pseudomonas aeruginosa, UniProt Q79MP6) (Q79MP6 whole entry): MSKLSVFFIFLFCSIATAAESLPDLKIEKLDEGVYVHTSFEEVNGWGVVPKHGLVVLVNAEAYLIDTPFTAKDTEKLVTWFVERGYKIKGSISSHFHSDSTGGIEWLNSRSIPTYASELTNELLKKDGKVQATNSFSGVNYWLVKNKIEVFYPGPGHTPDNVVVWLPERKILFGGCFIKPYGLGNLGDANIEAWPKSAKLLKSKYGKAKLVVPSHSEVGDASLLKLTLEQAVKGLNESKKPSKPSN
Sequence of Mucolipin-3 (Q8TDD5 whole entry): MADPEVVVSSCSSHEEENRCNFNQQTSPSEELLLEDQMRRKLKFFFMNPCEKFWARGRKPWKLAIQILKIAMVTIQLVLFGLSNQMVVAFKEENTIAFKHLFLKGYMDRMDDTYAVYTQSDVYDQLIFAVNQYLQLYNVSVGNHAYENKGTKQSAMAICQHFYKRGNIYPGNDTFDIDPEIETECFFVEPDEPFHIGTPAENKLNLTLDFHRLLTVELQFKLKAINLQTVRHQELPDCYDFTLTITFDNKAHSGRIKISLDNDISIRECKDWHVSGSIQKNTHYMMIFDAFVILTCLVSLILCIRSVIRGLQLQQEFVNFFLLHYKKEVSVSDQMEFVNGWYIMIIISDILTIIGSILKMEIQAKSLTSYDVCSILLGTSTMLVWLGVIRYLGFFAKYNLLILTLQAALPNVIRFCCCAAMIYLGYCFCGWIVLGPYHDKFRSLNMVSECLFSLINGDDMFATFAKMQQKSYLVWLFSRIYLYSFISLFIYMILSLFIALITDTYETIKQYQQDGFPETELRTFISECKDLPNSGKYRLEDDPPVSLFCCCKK
Sequence of Sphingosine 1-phosphate receptor 4 (O95977 whole entry): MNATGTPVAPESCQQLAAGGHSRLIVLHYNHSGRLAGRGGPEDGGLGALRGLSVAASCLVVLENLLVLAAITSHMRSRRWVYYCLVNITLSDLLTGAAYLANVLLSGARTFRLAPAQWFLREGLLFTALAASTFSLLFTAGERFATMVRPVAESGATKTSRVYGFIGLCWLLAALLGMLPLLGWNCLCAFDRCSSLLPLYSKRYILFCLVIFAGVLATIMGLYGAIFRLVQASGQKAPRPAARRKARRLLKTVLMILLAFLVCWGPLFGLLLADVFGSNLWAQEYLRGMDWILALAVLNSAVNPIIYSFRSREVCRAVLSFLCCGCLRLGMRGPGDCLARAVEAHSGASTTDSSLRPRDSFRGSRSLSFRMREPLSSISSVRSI

## Cc1nc2ccc(S(=O)(=O)Nc3ccc(-c4nc5cccnc5s4)cc3)cc2s1
[1]
  IC50: 0.713 µM (active)
[2]
  IC50: 1.6 µM (active)
[3]
  IC50: > 100 µM (inactive)

## Cc1cc(C)n2[nH]c(=O)c(N=Nc3cccc(C(F)(F)F)c3)c2n1
[4]
  CC50: 26.2 µM (active)
[5]
  CC50: 20 µM (active)
cells
  IC50: 18.7 µM (active)

## O=C(Cc1ccccc1F)N1CCC(n2nc(-c3ccccc3)oc2=O)CC1
[6]
  EC50: > 32 µM (inactive)
Cannabinoid receptor 1 [7]
  EC50: > 32 µM (inactive)
[8]
  IC50: > 32 µM (inactive)
Cannabinoid receptor 1 [9]
  IC50: 17.9 µM (inactive)
[10]
  IC50: > 32 µM (inactive)
Cannabinoid receptor 2 [11]
  IC50: > 32 µM (inactive)
Cannabinoid receptor 2 [12]
  EC50: > 32 µM (inactive)

## CC(=O)c1ccccc1NC(=O)C(C)OC(=O)c1c(C)nn(Cc2ccccc2)c1Cl (stereo unspecified)
[13]
  EC50: > 50 µM (inactive)

## CCOc1ccc(NC(=S)Nc2cc(C)n[nH]2)cc1
[14]
  IC50: 9.41 µM (active)
[15]
  IC50: > 50 µM (inactive)
Phosphomannomutase 2
  IC50: > 100 µM (inactive)
[16]
  IC50: > 100 µM (inactive)
[17]
  IC50: > 100 µM (inactive)

## CCCN1C(=O)c2cccc3c(N4CCCCC4)ccc(c23)C1=O
[18]
  EC50: 29.8 µM (active)
[19]
  EC50: 51 µM (inconclusive)
Ion channel NompC
  EC50: > 9.97 µM (inactive)
Beta-lactamase [20]
  IC50: > 59.6 µM (inactive)
Mucolipin-3
  EC50: > 9.97 µM (not active)
Beta-lactamase [21]
  IC50: > 59.6 µM (inactive)

## O=C(CSc1nc(=O)n(CCN2CCOCC2)c2c1CCCC2)Nc1cccc([N+](=O)[O-])c1
[22]
  EC50: 0.631 µM (active)
